According to patent US5871949A, “Method of quantitative assay for 1,5-anhydroglucitol and reagent for quantitative assay” (Daiichi Pure Chemicals Co., Ltd., priority 1996, dated 1999):
Each block holds one molecule with its values, some of them ahead of it.

Tests used:
Type in all cases: biochemical, Agrobacterium tumefaciens NT 1130
1,5-AG dehydrogenase [1] = test: Substrate specificity of 1,5-AG dehydrogenase (relative activity on various sugars); details: substrate final concentration 5 mM; for Relative activity (substrate specificity): 1,5-AG = 100, nitrotetrazolium blue, pH 8.0, 37° C.
Procedure: The activity of the 1,5-AG dehydrogenase is measured in the following way. That is, 3.0 ml in total of an enzyme-containing solution comprised of 1.5 ml of 0.2M potassium phosphate buffer (pH 8.0), 0.3 ml of 0.25% by weight nitrotetrazolium blue, 0.3 ml of 2% by weight nonionic surface-active agent, 0.3 ml of an aqueous 50 mM 1,5-AG solution, 0.45 ml of water and 0.15 ml of an enzyme solution is reacted at 37° C., and a change in absorbance (ΔmOD/min) at 540 nm is measured. The molecular extinction coefficient (or molar absorption coefficient) of a formazan dye formed under such conditions is given as 16.7×10^3 and the quantity of the enzyme capable of forming 1 μmol of formazan in one minute is regarded as one unit, where the activity of the 1,5-AG dehydrogenase is determined according to the following expression; [formula] (1) Activity:
Relative activities (substrate specificity) of instances where the 1,5-AG was replaced with various sugar solutions (all having a final concentration of 5 mM) in the above method of measuring the enzymatic activity are shown in Table 2.

1,5-AG dehydrogenase [2] = test: Electron acceptor utilisation by 1,5-AG dehydrogenase (relative activity); details: 100 mM potassium phosphate buffer pH 8.0
Procedure: In 100 mM of the potassium phosphate buffer (pH 8.0), various electron acceptors were made present together with the present enzyme, where the activities on the respective electron acceptors were indicated as relative activities, which were as shown in Table 3.

1,5-AG dehydrogenase [3] = test: Km value by Lineweaver-Burk plot; details: read-out: Km value with respect to 1,5-AG
Procedure: The Km value of the present enzyme with respect to 1,5-AG was determined by the Lineweaver-Burk plot to reveal that it was about 0.5 mM.

Action of the enzyme on the substrate (in words) (1,5-AG dehydrogenase [1]): weakly acted
Relative activity (substrate specificity) (1,5-AG dehydrogenase [1]): 25
Compound: O=C(CO)[C@@H](O)[C@H](O)[C@@H](O)CO [L-sorbose]

Relative activity (substrate specificity) (1,5-AG dehydrogenase [1]): 0
Compound: O[C@H]1[C@H](O)[C@@H](O)[C@H](O)[C@@H](O)[C@H]1O [Myoinocitol]

Compound: NC(=O)c1ccc[n+]([C@@H]2O[C@H](COP(=O)([O-])OP(=O)(O)OC[C@H]3O[C@@H](n4cnc5c(N)ncnc54)[C@H](O)[C@@H]3O)[C@@H](O)[C@H]2O)c1 [NAD, nicotinamide adenine dinucleotide]
Relative activity (electron acceptor) (1,5-AG dehydrogenase [2]; acceptor 1.0 mM): 0%

Compound: COc1cc(-c2ccc(-[n+]3nc(-c4ccccc4)nn3-c3ccc([N+](=O)[O-])cc3)c(OC)c2)ccc1-[n+]1nc(-c2ccccc2)nn1-c1ccc([N+](=O)[O-])cc1 [Nitrotetrazolium blue]
Relative activity (electron acceptor) (1,5-AG dehydrogenase [2]; acceptor 1.0 mM): 53%

Compound: OC[C@H]1OC[C@H](O)[C@@H](O)[C@@H]1O [1,5-AG, 1,5-anhydroglucitol]
Km (1,5-AG dehydrogenase [3]): ~500 µM
Action of the enzyme on the substrate (in words) (1,5-AG dehydrogenase [1]): strongly acted
Relative activity (substrate specificity) (1,5-AG dehydrogenase [1]): 100

Compound: O=C1C(Cl)=CC(=Nc2ccc(O)cc2)C=C1Cl [2,6-Dichlorophenolindophenol]
Relative activity (electron acceptor) (1,5-AG dehydrogenase [2]; acceptor 0.1 mM): 100%

Relative activity (substrate specificity) (1,5-AG dehydrogenase [1]): 0
Compound: OC[C@H]1O[C@H](O[C@H]2[C@H](O)[C@@H](O)C(O)O[C@@H]2CO)[C@H](O)[C@@H](O)[C@@H]1O (mixture of isomers) [Maltose]

Relative activity (substrate specificity) (1,5-AG dehydrogenase [1]): 2
Compound: O=C(CO)[C@@H](O)[C@H](O)[C@H](O)CO [D-fructose]

Compound: O=O [Oxygen]
Relative activity (electron acceptor) (1,5-AG dehydrogenase [2]; dissolved oxygen): 0%

Relative activity (substrate specificity) (1,5-AG dehydrogenase [1]): 0
Compound: O=C[C@H](O)[C@@H](O)[C@@H](O)[C@H](O)CO [D-galactose]

Compound: NC(=O)c1ccc[n+]([C@@H]2O[C@H](COP(=O)([O-])OP(=O)(O)OC[C@H]3O[C@@H](n4cnc5c(N)ncnc54)[C@H](OP(=O)(O)O)[C@@H]3O)[C@@H](O)[C@H]2O)c1 [NADP]
Relative activity (electron acceptor) (1,5-AG dehydrogenase [2]; acceptor 1.0 mM): 0%

Compound: OC[C@@H](O)[C@@H](O)[C@H](O)[C@@H](O)CO [Glucitol]
Relative activity (substrate specificity) (1,5-AG dehydrogenase [1]): 0

Action of the enzyme on the substrate (in words) (1,5-AG dehydrogenase [1]): slightly acted
Relative activity (substrate specificity) (1,5-AG dehydrogenase [1]): 11
Compound: O=C[C@H](O)[C@@H](O)[C@H](O)[C@H](O)CO [D-glucose]
